# Experimental data taken from PubChem BioAssay (NCI).
# “And” between values parts separate entries of the source, which are not always exact repeats. Equal entries are not always repeated.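 48-hour exposure; five concentrations; linearly interpolated endpoints. Abbreviation: GI50, concentration required for 50% inhibition of growth. Definition used: TGI = concentration required for complete inhibition of growth.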
# What was measured:
# Experiment in all cases: NCI anticancer screen, dose series, 48 h
# UACC-257 melanoma = test system: UACC-257 melanoma
# M14 melanoma = test system: M14 melanoma
# UACC-62 melanoma = test system: UACC-62 melanoma
# HL-60(TB) leukemia = test system: HL-60(TB) leukemia
# A549 NSCLC = test system: A549 NSCLC
# NCI-H23 lung = test system: NCI-H23 lung
# HCT-116 colon = test system: HCT-116 colon
# MALME-3M melanoma = test system: MALME-3M melanoma
SMILES,TGI (UACC-257 melanoma) [µM],TGI (M14 melanoma) [µM],TGI (UACC-62 melanoma),TGI (HL-60(TB) leukemia) [µM],TGI (A549 NSCLC) [µM],TGI (NCI-H23 lung),TGI (HCT-116 colon) [µM],TGI (MALME-3M melanoma) [µM],GI50 (UACC-257 melanoma) [µM]
O=S(c1ccc(Cl)cc1)c1ccccc1C1=NCCN1 (stereo not drawn),> 100,> 100,> 100 µM,> 100,> 100,> 100 µM,> 100,> 100,
COc1cc(C2c3cc(OC)c(OC)c(O)c3C(=O)C3CCC(=O)N32)cc(OC)c1OC (stereo not drawn),> 100,> 100,> 100 µM,> 100,> 100,,> 100,,
CC(=O)OCC1OC(n2c(N)c(C#N)c(-c3cccc(Cl)c3)c(C#N)c2=S)C(OC(C)=O)C(OC(C)=O)C1OC(C)=O (stereo not drawn),65,57.1,> 100 µM,52,> 100,92.7 µM,94,> 100,
CC(=O)c1ccc2c3c1O[C@H]1c4[nH]c5ccccc5c4C[C@@]4(O)[C@@H](C2)N(CC2CC2)CC[C@]314,30.7,31.3,30.7 µM,37,21.3,48.1 µM,28.9,36.3,
Cc1ccc(N=C2SC(=NN(C)C)SC2=Nc2ccc(C)cc2)cc1,> 100,,> 100 µM,> 100,> 100,> 100 µM,> 100,> 100,
CCOC1NC(/N=C/c2ccc(OC)cc2)=C(C#N)C1C#N (stereo not drawn),> 100,> 100,> 100 µM,> 100,> 100,> 100 µM,> 100,> 100,
O=C(CSCC(=O)N/N=C\c1ccccc1F)N/N=C\c1ccccc1F,> 100,> 100,> 100 µM,> 100,> 100,> 100 µM,> 100,> 100,
COc1ccc(N2N=NN(C(C)C)/C2=C(/Cl)c2nnnn2-c2ccc(OC)cc2)cc1,28.9,21.9,28.7 µM,5.15,33.6,33 µM,14.1,24.7,
COC1=CC(=O)c2nc3ccccc3c3ccnc1c23,17,13.7,2.95 µM,10.7,13.9,16 µM,> 22.8,7,
Cc1c2oc3c(C)cc(F)c(C(=O)NC4C(=O)NC(C(C)C)C(=O)N5CCCC5C(=O)N(C)CC(=O)N(C)C(C(C)C)C(=O)OC4C)c3nc-2c(C(=O)NC2C(=O)NC(C(C)C)C(=O)N3CCCC3C(=O)N(C)CC(=O)N(C)C(C(C)C)C(=O)OC2C)c(N)c1=O (stereo not drawn),,,0.492 µM and 0.154 µM,0.161,,0.897 µM and 6.26 µM,,,0.0732
CC(=O)OCC1OC(SC2=NC(=O)/C(=C/c3ccccc3)S2)C(OC(C)=O)C(OC(C)=O)C1OC(C)=O (stereo not drawn),> 100,> 100,87.2 µM,31.3,> 100,> 100 µM,> 100,70.5,
CN(/N=C/c1ccc(Cl)cc1)C1=NCCCCN1,> 100,57.4,> 100 µM,> 100,> 100,> 100 µM,> 100,> 100,
C=CCOCn1ccc(N)nc1=O,> 100,> 100,> 100 µM,> 100,> 100,> 100 µM,> 100,> 100,
O=S1(=O)OCCCOS(=O)(=O)C1(Br)Br,> 100,> 100,> 100 µM,> 100,> 100,> 100 µM,> 100,> 100,
COc1ccc(N2C(=O)C3c4[nH]c5ccccc5c4C4c5ccccc5CC4C3C2=O)cc1 (stereo not drawn),> 100,> 100,> 100 µM,> 100,> 100,> 100 µM,> 100,> 100,
N#Cc1c(N2CCCC2)nsc1Nc1ccc(F)cc1,> 100,> 100,> 100 µM,> 100,> 100,> 100 µM,> 100,> 100,
CN(C)C=NCC(O)c1ccccc1 (stereo not drawn),,> 100,> 100 µM,> 100,> 100,> 100 µM,> 100,> 100,
COc1cc2[nH]c(=O)c3cc(C)cc4c(Cl)nc(c1OC)c2c43,> 100,> 100,96 µM,> 100,> 100,> 100 µM,> 100,62,
Cc1ccc2c(=O)cc(Cc3csc4ccccc34)[nH]c2n1,> 100,> 100,> 100 µM,,> 100,53.4 µM,> 100,62.1,
CCOC(=O)C(NC(=O)CC)(Nc1ccc(S(=O)(=O)Nc2ccc(OC)nn2)cc1)C(F)(F)F (stereo not drawn),> 100,> 100,> 100 µM,> 100,> 100,> 100 µM,> 100,> 100,
CCN(CC)c1ccc2cc(C(N)=O)c(=Nc3ccc(F)cc3)oc2c1,> 100,> 100,> 100 µM,> 100,> 100,> 100 µM,> 100,> 100,
OCC1OC(c2ccccc2)CC1O (stereo not drawn),> 100,> 100,> 100 µM,> 100,> 100,,> 100,,
NCCS(=O)(=O)O,> 100,> 100,,> 100,> 100,> 100 µM,> 100,> 100,
O=c1[nH]nc(Cc2ccc(Cl)cc2)n1/N=C/c1c[nH]c2ccccc12,> 100,> 100,> 100 µM,> 100,> 100,> 100 µM,> 100,> 100,
COc1ccc(Cn2c3ccc([N+](=O)[O-])cc3c(=O)n2Cc2ccccn2)cc1,> 100,> 100,> 100 µM,75.1,> 100,> 100 µM,> 100,> 100,
